Assay results taken from PMC9065200, “Engineering of donor-acceptor-donor curcumin analogues as near-infrared fluorescent probes for in vivo imaging of amyloid-β species” (Theranostics, 2022).

Legend:
Aβ42 oligomers = target: T1, Aβ42 oligomers (Homo sapiens, UniProt P05067); experiment: fluorescence titration, one-site binding regression; conditions: read-out: Aβ oligomers / Kd
T1 construct: gene APP; commercial Abeta(1-42) peptide, cut from APP precursor; soluble oligomers prepared via HFIP/water, stirred 24-48 h at ~22 °C, confirmed by TEM
T1 sequence (P05067 672-713): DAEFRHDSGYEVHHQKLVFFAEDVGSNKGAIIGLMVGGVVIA
Text: fluorescence titration, one-site binding regression on Aβ42 oligomers

Aβ42 monomers = target: T2, Aβ42 monomers (Homo sapiens, UniProt P05067); experiment: as above; conditions: read-out: Aβ monomers / Kd
T2 construct: gene APP; commercial Abeta(1-42) peptide (Nanjing Peptide Biotech), cut from APP precursor; monomer stock in hexafluoroisopropanol
T2 sequence (P05067 672-713): as above
Text: fluorescence titration, one-site binding regression on Aβ42 monomers

Kd (Aβ42 oligomers): 167 ± 19.9 nM
Kd (Aβ42 monomers): 64.2 ± 5.38 nM
SMILES: CN(C)c1ccc2cc(/C=C/C3=CC(/C=C/C=C4N(C)c5ccccc5C4(C)C)=[O+][B-](F)(F)O3)ccc2c1 [compound 7, probe 7]
